# Measurements published in patent publication US20080213213A1, “Method For the Treatment of Myelodysplastic Syndromes Using (+)-2-[1-(3-Ethoxy-4-Methoxyphenyl)-2-Methylsulfonylethyl]-4-Acetylaminoisoindoline-1,3-Dione” (priority 2004, published 2008).
# How the values were obtained:
# MDS patients = conditions: cited from earlier work
# [1] = test system: death-receptor initiated programmed cell death; test: In vitro pharmacology: death-receptor initiated programmed cell death; type: cell-based
# Source text: (§1) The pharmacological effects of 3-(3,4-dimethoxy-phenyl)-3-(1-oxo-1,3-dihydro-isoindol-2-yl)-propionamide derive from its action as an inhibitor of cellular response to receptor-initiated trophic signals (e.g., IGF-1, VEGF, cyclooxygenase-2), and other activities.
# angiogenic response = test: In vitro pharmacology: angiogenic response; type: cell-based
# Source text: as §1
# AML cells = test: Mitogenic response to VEGF in AML cells; type: cell-based
# Source text: as §1
# [2] = test system: MDS bone marrow progenitor; test: MDS vs normal bone marrow progenitor formation in pre-clinical models; type: cell-based
# Source text: as §1
# [3] = test system: production of various cytokines; test: In vitro studies of pharmacological activity profile and cytokine production; type: cell-based, human
# Method: The pharmacological properties of 3-(3,4-dimethoxy-phenyl)-3-(1-oxo-1,3-dihydro-isoindol-2-yl)-propionamide, including activity comparisons with thalidomide, are characterized in in vitro studies. Studies examine the effects of 3-(3,4-dimethoxy-phenyl)-3-(1-oxo-1,3-dihydro-isoindol-2-yl)-propionamide on the production of various cytokines. In addition, a safety pharmacology study of -(3,4-dimethoxy-phenyl)-3-(1-oxo-1,3-dihydro-isoindol-2-yl)-propionamide is conducted in dogs and the effects of the compound on ECG parameters are examined further as part of three repeat-dose toxicity studies in primates.
# Inhibition of TNF-α production following LPS-stimulation of human PBMC and human whole blood by 3-(3,4-dimethoxy-phenyl)-3-(1-oxo-1,3-dihydro-isoindol-2-yl)-propionamide is investigated in vitro (Muller et al., Bioorg. Med. Chem. Lett. 9:1625-1630, 1999). The IC50's of 3-(3,4-dimethoxy-phenyl)-3-(1-oxo-1,3-dihydro-isoindol-2-yl)-propionamide for inhibiting production of TNF-α following LPS-stimulation of PBMC and human whole blood is measured.
# as §1
# [4] = test system: adhesion molecules and apoptosis inhibitory proteins (e.g., cFLIP, cIAP); test: In vitro pharmacology: adhesion molecules and apoptosis inhibitory proteins; type: cell-based
# Source text: as §1
molecule,measurement,setting,value
recombinant human GM-CSF: granulocyte macrophage colony stimulating factor (GM-CSF),granulocytopoiesis in treated patients,MDS patients,can restore granulocytopoiesis
same,improvement in hemoglobin or platelet counts,MDS patients,little or no improvement
"recombinant human EPO: erythropoietin (EPO), hematopoietic growth factor",patients with sustained improvement in hemoglobin or decrease in transfusion requirement,MDS patients,less than 25%
"COc1ccc(C(CC(N)=O)N2Cc3ccccc3C2=O)cc1OC (stereo not drawn) [3-(3,4-dimethoxy-phenyl)-3-(1-oxo-1,3-dihydro-isoindol-2-yl)-propionamide]",sensitivity to death-receptor initiated programmed cell death,[1],promotes sensitivity to death-receptor initiated programmed cell death
same,angiogenic response,angiogenic response,suppresses angiogenic response
same,mitogenic response to VEGF,AML cells,abrogates mitogenic response to VEGF
same,ligand-induced Akt-phosphorylation,AML cells; VEGF,extinguishing ligant-induced Akt-phosphorylation
same,MDS vs normal bone marrow progenitor formation,[2],selectively suppresses MDS vs normal bone marrow progenitor formation
same,generation of inflammatory cytokines,[3],suppresses the generation of inflammatory cytokines
same,"adhesion molecules and apoptosis inhibitory proteins (e.g., cFLIP, cIAP)",[4],down-regulates adhesion molecules and apoptosis inhibitory proteins
"G-CSF: granulocyte colony stimulating factor (G-CSF) (protein, UniProt P09919 31-207, looked up) Granulocyte …: TPLGPASSLPQSFLLKCLEQVRKIQGDGAALQEKLVSECATYKLCHPEELVLLGHSLGIPWAPLSSCPSQALQLAGCLSQLHSGLFLYQGLLQALEGISPELGPTLDTLQLDVADFATTIWQQMEELGMAPALQPTQGAMPAFASAFQRRAGGVLVASHLQSFLEVSYRVLRHLAQP",granulocytopoiesis in treated patients,MDS patients,can restore granulocytopoiesis
same,improvement in hemoglobin or platelet counts,MDS patients,little or no improvement
